{"source": "paper PMC6021345", "about": "(Oncotarget, 2018)", "key": {"CES1": {"molecular_target": "T1, CES1 (Homo sapiens, UniProt P23141)", "T1 construct": "purchased Sigma-Aldrich E0162", "T1 sequence (P23141 18-567)": "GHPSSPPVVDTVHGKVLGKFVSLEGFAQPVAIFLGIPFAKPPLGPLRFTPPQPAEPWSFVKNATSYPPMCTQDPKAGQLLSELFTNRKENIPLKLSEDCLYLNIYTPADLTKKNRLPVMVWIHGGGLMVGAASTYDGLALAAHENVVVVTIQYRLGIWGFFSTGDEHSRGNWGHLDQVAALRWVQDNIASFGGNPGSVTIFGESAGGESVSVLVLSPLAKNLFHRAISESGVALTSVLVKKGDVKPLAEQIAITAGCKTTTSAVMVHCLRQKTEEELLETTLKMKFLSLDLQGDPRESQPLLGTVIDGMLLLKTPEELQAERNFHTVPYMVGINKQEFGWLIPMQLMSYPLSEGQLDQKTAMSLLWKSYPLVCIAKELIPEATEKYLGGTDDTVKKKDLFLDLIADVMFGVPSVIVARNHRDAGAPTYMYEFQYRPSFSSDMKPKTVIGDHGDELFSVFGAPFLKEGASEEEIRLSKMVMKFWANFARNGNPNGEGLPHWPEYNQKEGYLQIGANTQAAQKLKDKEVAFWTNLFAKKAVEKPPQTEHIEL", "experiment": "In vitro CES1 enzyme-based assay (4-NPA substrate)", "assay_type": "biochemical", "conditions": "even at 300μM", "method": "The recombinant purified CES2 and CES1 enzymes, and 4-NPA were purchased from Sigma-Aldrich with product IDs E0412, E0162, and N8130, respectively. […] All compounds were dissolved in DMSO at 10mM. In the screening assay, the compounds were diluted in 50mM HEPES and the final compound concentration in the reaction system was adjusted to 50μM. […] The assays were conducted at 300μl total volume in 96-well plates. Reactions consisted of the following: 100μL 50mM HEPES with 20 units of enzyme, 10μL compound solution (various concentrations), 2μL 300mM 4-NAP, and 188μL 50mM HEPES, pH 7.4. The compound and 4-NAP solution were added into the plate first and then the reaction was initiated by the addition of enzyme solution. After 15 minutes incubation at 25°C, absorbance was measured using a microplate reader at 405nm in FLUOstar Omega Microplate Reader. The CES1/CES2 inhibitor compound bis-(4-nitrophenyl) phosphate (BNPP) was used as positive control in all the assays."}, "CT-26 tumor": {"test_system": "CT-26 tumor", "experiment": "Tumor growth in CT-26 tumor-bearing mice", "assay_type": "in vivo", "method": "CT-26 cell line was used to make the tumor bearing mouse model by s.c. injection of 0.02mL cells in PBS at 5×10^7 cells/mL into the posterior mid-dorsum. Tumor volumes were estimated by the formula π/6×a^2×b, where a is the short and b is the long axis. When tumor volume reached roughly 100mm^3 (~10 days after implantation, defined as day 1), mice were randomly separated into 5 groups, 1). CPT-11 only group, receiving CPT-11 50mg/kg + vehicle 2). CPT-11+Hst 20mg/kg, 3). CPT-11+Hst 100mg/kg, 4). Hst 100mg/kg only, and 5) vehicle control group. CPT-11 was administrated by i.p. injection from day 1 to day 9 while Hst were administrated by oral gavage from day 1 to the end of study. An equivalent dosage of saline or CMC were administrated by i.p injection and oral gavage as vehicle, respectively. Mice were examined daily for signs of diarrhea (fecal staining of skin, lose watery stool) and bloody diarrhea (black sticky stool), as well as tumor growth. After sacrifice, jejunum, ileum and colon samples were dissected. Tissues were formalin-fixed and paraffin embedded for histological examination using 4μm-thick, 100μm step serial sections stained with H&E. A histologic score to evaluate inflammation, epithelial changes and mucosa architecture for each slide was calculated as described previously. […]"}}}
{"smiles": "COc1ccc([C@@H]2CC(=O)c3c(O)cc(O)cc3O2)cc1O", "note": "[hesperetin]", "values": [{"measurement": "CES1 inhibition", "setting": "CES1", "value": "no significant CES1 inhibition"}, {"measurement": "effect on in vivo antitumor activity of CPT-11", "setting": "CT-26 tumor; Hst 20 and 100 mg/kg + CPT-11, starting 5-6 days after Hst treatment", "value": "enhanced the in vivo antitumor activity of CPT-11"}, {"measurement": "tumor growth, Hst alone", "setting": "CT-26 tumor; Hst alone 100 mg/kg", "value": "mild inhibition on tumor growth"}]}
